Experimental data reported in patent US20100144733A1, “Compounds, compositions and methods comprising heteroaromatic derivatives” (Institute for OneWorld Health, priority 2008, published 2010).
Read-outs that look alike come from different tables or passages of the source.

Legend:
[1] = target: T1, CFTR (Homo sapiens, UniProt P13569); assay: T84 assay (FLIPR membrane potential dye, forskolin/IBMX-stimulated CFTR channel activity); type: cell-based
T1 construct: endogenous in cells; host or cells: T84 human colonic cells (ECACC)
T1 sequence (P13569 whole entry): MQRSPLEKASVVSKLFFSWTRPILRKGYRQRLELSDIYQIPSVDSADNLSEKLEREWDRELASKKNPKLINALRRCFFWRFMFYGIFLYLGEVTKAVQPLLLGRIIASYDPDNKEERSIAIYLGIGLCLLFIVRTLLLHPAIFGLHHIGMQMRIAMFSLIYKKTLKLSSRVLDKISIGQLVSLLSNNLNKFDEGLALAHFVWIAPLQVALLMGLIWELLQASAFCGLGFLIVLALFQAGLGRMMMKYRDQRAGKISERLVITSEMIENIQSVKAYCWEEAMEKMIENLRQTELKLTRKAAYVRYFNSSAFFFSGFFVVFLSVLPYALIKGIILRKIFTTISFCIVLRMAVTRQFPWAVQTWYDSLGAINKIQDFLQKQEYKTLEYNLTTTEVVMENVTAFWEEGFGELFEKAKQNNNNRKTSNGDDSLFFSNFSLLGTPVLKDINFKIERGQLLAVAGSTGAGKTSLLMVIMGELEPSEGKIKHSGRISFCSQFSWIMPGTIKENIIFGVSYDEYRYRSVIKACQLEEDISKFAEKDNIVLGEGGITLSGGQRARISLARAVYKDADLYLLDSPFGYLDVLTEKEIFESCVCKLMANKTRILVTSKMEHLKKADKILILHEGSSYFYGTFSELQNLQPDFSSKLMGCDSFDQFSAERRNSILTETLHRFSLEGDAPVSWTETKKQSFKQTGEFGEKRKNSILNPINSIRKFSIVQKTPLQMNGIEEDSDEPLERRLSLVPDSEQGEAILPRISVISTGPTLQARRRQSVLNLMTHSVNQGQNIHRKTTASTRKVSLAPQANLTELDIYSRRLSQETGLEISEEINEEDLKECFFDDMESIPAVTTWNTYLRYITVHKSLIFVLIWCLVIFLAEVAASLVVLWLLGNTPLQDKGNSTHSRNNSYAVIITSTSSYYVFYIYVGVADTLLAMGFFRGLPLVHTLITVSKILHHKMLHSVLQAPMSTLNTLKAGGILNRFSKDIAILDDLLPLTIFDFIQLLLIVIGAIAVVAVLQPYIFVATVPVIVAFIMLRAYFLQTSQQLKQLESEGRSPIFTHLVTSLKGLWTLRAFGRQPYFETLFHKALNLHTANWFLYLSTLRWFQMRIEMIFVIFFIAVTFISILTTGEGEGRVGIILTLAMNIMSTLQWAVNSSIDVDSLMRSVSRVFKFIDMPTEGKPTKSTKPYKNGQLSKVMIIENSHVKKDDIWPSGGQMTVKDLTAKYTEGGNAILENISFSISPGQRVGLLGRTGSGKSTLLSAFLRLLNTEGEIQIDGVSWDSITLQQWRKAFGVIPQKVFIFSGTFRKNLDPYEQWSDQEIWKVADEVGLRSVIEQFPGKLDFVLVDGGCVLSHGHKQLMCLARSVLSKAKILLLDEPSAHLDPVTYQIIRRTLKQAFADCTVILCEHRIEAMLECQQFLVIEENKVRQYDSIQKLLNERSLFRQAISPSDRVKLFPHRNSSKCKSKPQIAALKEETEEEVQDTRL
In short: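 Fluorescence from a membrane potential dye in T84 monolayers (HBSS with 10 mM Hepes) is followed each second for 150 s. Cells are exposed to test compound during the 45 min dye loading, then challenged with forskolin (10 μM) and IBMX (100 μM) to open CFTR. Inhibitors suppress the depolarization-driven fluorescence increase.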

[2] = system: cholera toxin (CTX) induced net fluid secretion in intestinal loops; assay: animal or person; type: in vivo, mice (CD1 strain); settings: 4 hours; for inhibition in vivo at 100 µg/loop: Mus musculus, read-out: closed loop % inhibition @ 100 μg
[3] = oxadiazole-containing compounds (a series), average of at least 2 runs unless annotated n = 1, read-out: IC50

SMILES: CN(Cc1ccc(C(F)(F)F)cc1)C(=O)c1cc(-c2cc(Br)c(O)c(Br)c2)on1 [2g, 5-(3,5-Dibromo-4-hydroxyphenyl)-N-methyl-N-(4(trifluoromethyl)benzyl)isoxazole-3-carboxamide]
- IC50 ([1]; isoxazole-containing compounds (Table 10, 10′, 11, 11′), read-out: IC50): 6.96 µM
- closed loop % inhibition @ 10 μg [2]: −66.3%
- inhibition in vivo at 100 µg/loop [2]: 94.2%

SMILES: O=C(NCc1ccc(Oc2ccccc2)cc1)c1nc(-c2cc(Br)c(O)c(Br)c2)no1 [13a, 3-(3,5-dibromo-4-hydroxyphenyl)-N-(4-phenoxybenzyl)-1,2,4-oxadiazole-5-carboxamide]
- IC50 [1, 3]: 8.51 µM
- closed loop % inhibition @ 10 μg [2]: 88.6%
- inhibition in vivo at 100 µg/loop [2]: 94.7%

SMILES: O=C(NCc1cccc(OC(F)(F)F)c1)c1noc(-c2cc(Br)c(O)c(Br)c2)n1 [65a, 5-(3,5-Dibromo-4-hydroxyphenyl)-N-(3-(trifluoromethoxy)benzyl)-1,2,4-oxadiazole-3-carboxamide]
- IC50 [1, 3]: 1.53 µM
- inhibition in vivo at 100 µg/loop [2]: 94.6%

SMILES: O=C(NCc1cc(F)cc(F)c1)c1noc(-c2cc(Cl)c(O)c(Cl)c2)n1 [112a, 5-(3,5-dichloro-4-hydroxyphenyl)-N-(3,5-difluorobenzyl)-1,2,4-oxadiazole-3-carboxamide]
- IC50 [1, 3]: 11.2 µM
- inhibition in vivo at 100 µg/loop [2]: 51%

SMILES: O=C(NCc1cccc(OC(F)(F)F)c1)c1noc(-c2cc(Cl)c(O)c(Cl)c2O)n1 [120a, 5-(3,5-dichloro-2,4-dihydroxyphenyl)-N-(3-(trifluoromethoxy)benzyl)-1,2,4-oxadiazole-3-carboxamide]
- IC50 [1, 3]: 12.4 µM
- inhibition in vivo at 100 µg/loop [2]: 62.3%
